Source: patent US6060472A, “Thiadiazole compounds useful as inhibitors of H^+ /K^+ atpase” (Apotex Inc., priority 1998, dated 2000)

What was measured:
[1] = system: isolated murine gastric glands of mouse (acid secretion); test: In vitro inhibition of gastric acid secretion (14C-aminopyrine accumulation in isolated mouse gastric glands); type: cell-based; conditions: 1 h, 60 min at 37 °C, secretagogue stimulated
Method: In Vitro Inhibition of Gastric Acid Secretion by Compounds of Formula I
Acid secretion is measured indirectly by the accumulation of the weak base ^14 C-aminopyrine in the isolated murine gastric glands of mouse. The assay is performed in polypropylene eppendorf tubes containing 0.5 mL of resuspended mouse gastric glands. In addition, tubes contain the tested drug, acid secretagogues (e.g. histamine, di-butyryl cyclic AMP (cAMP), carbachol) and ^14 C-aminopyrine. Tubes are incubated for 60 min. at 37 ° C. and continuously rotated. The reaction is stopped by centrifugation of the gland suspension for five min. at 1500 g. Supernatant is aspirated leaving the pellet containing intact gastric glands. The pellet is washed extensively and digested overnight in 1 mL of Protosol (Amersham). After neutralisation with acetic acid and addition of scintillation fluid, the radioactivity is counted in a beta-counter (Beckman). The amount of radioactivity trapped in the pellet corresponds directly with the amount of acid being secreted. Each experimental point is done in triplicate. In each experiment, energy independent consumption was estimated with 0.1 mM of dinitrophenol and basal acid secretion in the absence of acid stimulants. These values were then subtracted from corresponding results in order to calculate basal or secretagogue stimulated acid secretion.
Mouse glands respond to a variety of conventional secretagogues and post-receptor mediators but not to gastrin. The maximum stimulation of acid secretion is achieved with 1 mM cAMP, 0.1 mM histamine, 0.1 mM IBMX, 10 μM carbachol, 10 μM forskolin, 10 μM calcium ionophore A23187, 1 μM thapsigarin. Each experiment is repeated a number of times and all results are expressed as a % of the maximum stimulation. For the purpose of comparing the relative potency of the compounds, each experiment contains positive controls using omeprazole for post-receptor/cAMP mediated responses and ranitidine which inhibits histamine mediated acid secretion.
Using the above procedure, the IC50 value for these compounds were as follows: […]

gastric acid secretion = test: Gastric secretion study in rat (pylorus ligation); type: in vivo, Male Sprague-Dawley rats; conditions: oral gavage, pylorus-ligated rat, 2 hours post ligation; for Average total gastric contents: Control 2.5; for Average total acid output: Control 298
Method: Gastric Secretion Study in Rat The objective of the study was to establish the antisecretory effects of two experimental compounds compared to Omeprazole. Male Sprague-Dawley rats (110 to 140 g in weight) were ordered from Ace Animals, Inc., Boyertown Pa. and were randomized into […] groups. The Control animals were administered carboxymethylcellulose (CMC) as the treated groups were administered the test materials in a suspension of CMC. Two groups were allotted to a reference standard of Omeprazole and were administered doses of 2 and 8 mg/kg. The other 4 dose groups were allotted to the 2 experimental compounds at doses of 8 and 32 mg/kg. All test materials were administered by oral gavage as this is the intended route in humans. Each animal was dosed using a stainless steel ball-tipped gavage needle attached to an appropriate size syringe. All doses administered were based on fasted body weights taken prior to the dosing. Two hours post drug administration, the animals were anesthetized using a short acting general anesthetic (Methoxital Sodium). The midline incision was made and the gastric duodenal area exposed. A ligature of thread was placed around the pylorus and tied tightly. This ligature around the pylorus stimulates the production of gastric acid. The incision was closed post ligation and the animal was replaced in its cage without access of food or water. All rats were euthanized 2 hours post pylorus ligation using an overdose of sodium pentobarbital. The esophagus was ligated and the intact stomach was removed and opened along the great curvature. Gastric contents were collected in a plastic cup and transferred to a 15 ml conical tube. The contents were centrifuged for approximately 10 minutes. The supernatant was decanted and the volume was measured to the nearest tenth of a milliliter. 1 ml of the gastric contents were pipetted into 4 ml of distilled water and titrated with 0.01 N sodium hydroxide to a pH of 7.0. The acidity was measured by titration and the total acid output calculated.

| SMILES | IC50 [1] [µM] | Average total gastric contents (gastric acid secretion; 2 mg/kg) [mL] | Average total acid output (gastric acid secretion; 2 mg/kg) [µEq] | Average total gastric contents (gastric acid secretion; 8 mg/kg) [mL] | Average total acid output (gastric acid secretion; 8 mg/kg) [µEq] | Average total gastric contents (gastric acid secretion; 32 mg/kg) [mL] | Average total acid output (gastric acid secretion; 32 mg/kg) [µEq] |
| --- | --- | --- | --- | --- | --- | --- | --- |
| O=C(c1ccccc1)c1nsc(N2CCN(c3ccccn3)CC2)n1 [3-benzoyl-5-{4-[pyridin-2-yl]-piperazin-1-yl}-1,2,4-thiadiazole] | 6 |  |  |  |  |  |  |
| COc1ccc2[nH]c([S+]([O-])Cc3ncc(C)c(OC)c3C)nc2c1 (stereo not drawn) [Omeprazole, reference compound] |  | 2.2 | 296 | 1.9 | 164 |  |  |
| COc1nsc(N2CCN(c3ccccn3)CC2)n1 [3-methoxy-5-{4-[pyridin-2-yl]-piperazin-1-yl}-1,2,4-thiadiazole] | 100 |  |  |  |  |  |  |
| O=C(c1cccc(Cl)c1)c1nsc(N2CCN(c3ccccn3)CC2)n1 [3-(3-chlorobenzoyl)-5-{4-[pyridin-2-yl]-piperazin-1-yl}-1,2,4-thiadiazole] | 25 |  |  | 1.9 | 159 | 2.9 | 271 |
| OC(c1ccccc1)c1nsc(N2CCN(c3ccccn3)CC2)n1 (stereo not drawn) [3-(1-hydroxy-1-phenylmethyl)-5-{4-[pyridin-2-yl]-piperazin-1-yl}-1,2,4-thiadiazole] | 30 |  |  |  |  |  |  |
| O=C(c1ccccc1)c1nsc(N2CCN(C(c3ccccc3)c3ccc(Cl)cc3)CC2)n1 (stereo not drawn) [3-benzoyl-5-{4-[1-phenyl-1-(4-chlorophenyl)methyl]piperazin-1-yl}-1,2,4-thiadiazole] | 50 |  |  |  |  |  |  |
| c1ccc(-c2nsc(N3CCN(c4ccccn4)CC3)n2)cc1 [3-phenyl-5-{4-[pyridin-2-yl]-piperazin-1-yl}-1,2,4-thiadiazole] | 4 |  |  | 2.2 | 223 | 1.2 | 100 |
